Data on 1 molecule can be found in publication PMC11087982, “In vitro and in vivo activities of a trithiolato-diRuthenium complex conjugated with sulfadoxine against the apicomplexan parasite Toxoplasma gondii” (International Journal for Parasitology: Drugs and Drug …, 2024).

Read-outs that look alike come from different tables or passages of the source.

Data set [1] relates to T. gondii β-gal tachyzoites. The note with it: cited from earlier work.
Data set [2] is described as follows: Formulation of the compound for oral gavage (precipitation). The format is physicochemical. The note with it: compared with 5 mg/kg in corn oil containing 10% DMSO; data not shown. As to the method: A preliminary in vivo study was conducted in outbred CD1 mice that were experimentally infected with TgShSp1 oocysts.
The test system of data set [3] is T. gondii Me49 tachyzoites. Kind of data set: Transmission electron microscopy of treated tachyzoites in HFF. It is filed as cell-based, Toxoplasma gondii. The note with it: 0.5 μM, 6 h of treatment. As to the method:
We examined the cellular ultrastructure of T. gondii tachyzoites treated with RU-SDX by TEM as described previously ([Anghel et al., 2021]; [Desiatkina et al., 2020]). Briefly, confluent HFF grown in T25 flasks were infected with 10^5 T. gondii Me49 tachyzoites, and infected cultures were maintained for 24 h at 37 °C/5% CO2. Subsequently, the medium was removed and medium containing 0.5 μM RU-SDX or 0.05% DMSO (as solvent control) was added, and cultures were maintained at 37 °C/5% CO2 during 6, 24 or 48 h. At the different timepoints the samples were fixed and processed for TEM ([Anghel et al., 2021]; [Desiatkina et al., 2020]). For this, cultures were washed with 0.1 M sodium cacodylate buffer (pH 7.3) and fixed in 2% glutaraldehyde in cacodylate buffer for 10 min at room temperature (RT). The fixed infected monolayers were gently scraped from the flasks, transferred into Eppendorf tubes, washed with in ice-cold 0.1 M sodium cacodylate buffer and fixed in 2% glutaraldehyde in cacodylate buffer for 2 h at RT. Further preparation steps included post-fixation in 2% osmium tetroxide, pre-staining, stepwise dehydration in ethanol, and embedding in Epon-812 resin. In some instances, T25 flasks containing HFF monolayers infected with T. gondii Me49 tachyzoites were treated with FCCP and CCCP for 10 min at 80 and 50 μM, respectively, and samples were prepared for TEM as described above. […]

In another data set the test system is Non-infected HFF. In words: TMRE uptake assay (mitochondrial membrane potential), non-infected HFF. It is filed as cell-based, human. The note with it: 0.5 μM, 3.5 h. As to the method:
(§1) 5 × 10^5 HFF were seeded into T25 culture flasks in DMEM complete medium and maintained in culture for 72 h to reach ⁓80% confluency. HFF monolayers were left either non-infected or were infected with 2 × 10^5 T. gondii Me49 tachyzoites. After another 48 h, the medium was removed from infected and non-infected T25 flasks and was replaced either by medium containing 0.5 μM RU-SDX, or in the case of non-treated controls, medium containing 0.05% DMSO. As positive controls, the two mitochondrial uncouplers FCCP and CCCP were applied at a concentration of 80 and 50 μM, respectively. PYR was applied at 0.5 μM as a control drug not affecting the MMP, and RU-adenine, used as a conjugate shown earlier to impact on the mitochondrial ultrastructure in T. gondii ([Anghel et al., 2021]; [Desiatkina et al., 2022b]), was also tested at 0.5 μM ([Anghel et al., 2021]; [Desiatkina et al., 2022b]). […] Fluorescence was measured using a Hidex Sense microplate reader instrument ([…]) with the excitation wavelength 544/20 nm and emitted light collected at 590/20 nm. Value from wells belonging to the same experimental condition were summed and the mean TMRE uptake in each condition was calculated from three biological replicates.

A further data set relates to T. gondii-infected HFF. In words: TMRE uptake assay (mitochondrial membrane potential), T. gondii-infected HFF. It is filed as cell-based, Toxoplasma gondii Me49 in human HFF. The note with it: 0.5 μM, 3.5 h. As to the method:
as §1

The subject of data set [4] is zebrafish (Danio rerio) embryo. In words: Zebrafish embryo acute toxicity test. The format is in vivo. The note with it: for Malformations (No. embryos with malformations / fertilized embryos) / Mortality (No. of dead embryos / fertilized embryos) / Unaffected embryos (No. / fertilized embryos): 96 h. As to the method: The zebrafish (Danio rerio) embryo acute toxicity test was carried out to assess the impact of RU-SDX on early embryo development as previously described ([Anghel et al., 2020]). RU-SDX was assessed at 0.2, 2 and 20 μM, while the bumped kinase inhibitor BKI-1748 (applied at 50 μM) was used as a positive control resulting in 100% mortality of zebrafish embryos ([Anghel et al., 2020]). For each test- and control condition, a 24 well plate containing 24 fertilized eggs (1 egg/well) was used. Negative control plates contained 1 ml of E3 medium/osmosis water, whereas eggs in solvent control plates were incubated in E3 medium containing 0.01% DMSO ([Anghel et al., 2020]). For each treatment, a survival rate was calculated that reflected the degree of either embryo death or malformations during the first 96 h of development in relation to eggs maintained without compound.

The subject of the next data set is HFF. In words: HFF host cell cytotoxicity, Alamar blue viability assay. The format is cell-based, human. The note with it: 72 h, uninfected HFF. As to the method:
To determine cytotoxicity of compounds on host cells, HFF were grown to confluency in 96 well plates and were treated with different concentrations of the drugs solubilized in medium during 72 h at 37 °C/5% CO2, or were treated with the corresponding concentration of DMSO only ([Desiatkina et al., 2020]; [Holzer et al., 2023]; [Păunescu et al., 2021]). The Alamar blue viability assay was used as previously described ([Desiatkina et al., 2020], [2021], [2022a], [2022b]; [Holzer et al., 2023]; [Păunescu et al., 2021]). In short, resazurin was added to each well at 0.01 mg/ml, and subsequently fluorescence of the produced resorufin was measured at excitation wavelength 544/20 nm and emission wavelength 590/20 nm using a Hidex Sense microplate reader (Hidex, Turku, Finland).
In general terms: The colour change of resazurin is a common sign of viable cells or microbes.

Turning to `CC(C)(C)c1ccc(C[S-])cc1.CC(C)(C)c1ccc(C[S-])cc1.COc1ncnc(NS(=O)(=O)c2ccc(NC(=O)Cc3ccc([S-])cc3)cc2)c1OC.Cc1ccc(C(C)C)cc1.Cc1ccc(C(C)C)cc1.[Cl-].[Ru+2].[Ru+2]` [RU-SDX], the “proliferation (% of control ± SD)” value is recorded as “^b^, ^∗∗∗11 ± 1%” in data set [1] (1 μM, ref Desiatkina et al., 2021); “^b^,*116 ± 1%” in data set [1] (1.1 μM, ref Desiatkina et al., 2021); “^b^, ^a0 ± 0%” in data set [1] (1.25 μM, ref Desiatkina et al., 2021, Păunescu et al.). For the same molecule, the “behaviour at higher concentrations or in other vehicles (PBS ± DMSO, H2O ± DMSO, H2O + propane-1,2-diol)” value in data set [2] is recorded as “precipitation”. In data set [3], the “ultrastructural changes in tachyzoites (TEM)” value is listed as “mitochondrial matrix appeared to have lost its characteristic electron dense texture in many areas”. The “TMRE fluorescence intensity / TMRE uptake (percentage of non-treated control = 100%)” value in the data set on Non-infected HFF was found to be 140%; in the data set on T. gondii-infected HFF, 130%. The “survival score (surviving embryos without malformations)” value is 95% in data set [4] (0.2 μM), 90% in data set [4] (2 μM) and “no surviving embryos” in data set [4] (20 μM). Besides, the “Malformations (No. embryos with malformations / fertilized embryos)” value in data set [4] (0.2 μM) is 0/20; in data set [4] (2 μM), 1/20; in data set [4] (20 μM) it was 0/20. Besides, the “Mortality (No. of dead embryos / fertilized embryos)” value in data set [4] (0.2 μM) is recorded as 1/20; in data set [4] (2 μM) it was 1/20; in data set [4] (20 μM) it was 20/20. Besides, the results for the “Unaffected embryos (No. / fertilized embryos)” value in data set [4] (0.2 μM), in data set [4] (2 μM) and in data set [4] (20 μM) were 19/20, 18/20 and 0/20, respectively. Moreover, the “time of peak of mortality of zebrafish embryos” value in data set [4] (20 μM, h of embryogenesis) turned out to be 72 h. Further, the “viability (% of control ± SD)” value was found to be 79 ± 4% in the data set on HFF (2.5 μM), 64 ± 4% in the data set with HFF (5 μM) and 31 ± 9% in the data set with HFF (10 μM).
